From patent publication US5635359A, “Method for measuring the activity of angiotensin converting enzyme in biological samples” (priority 1991, dated 1997)

Tests used:
[1] = tested on: angiotensin converting enzyme (ACE); test: Plasma ACE-activity, trapping-assay (Ang I substrate, monoclonal antibody TRAP, RIA) after oral enalapril; type: in vivo, human; details: for ACE-activity measured in vitro with the trapping-assay as percent of baseline / ACE-Activity trapping-assay: mean ± SEM; for ACE-Activity trapping-assay: healthy humans, single oral dose 20 mg enalapril
Protocol: (§1) Ten normal volunteers aged 20 to 28 years (body weight 63 to 85 kg) participated in the study. On the study day, they came to the hospital at 7 a.m. and were installed in a supine position. At 8 a.m., the subjects ingested 20 mg enalapril, an inhibitor of angiotensin converting enzyme. Venous blood samples were collected before (time 0) and at 0.5, 1, 2, 4, 8 and 24 hours after enalapril intake. The subjects remained in supine position for one hour prior to blood sampling and no food intake was permitted within three hours prior to sampling.
(§2) For the measurement of ACE-activity, blood samples (5 ml) were collected from the antecubital vein into prechilled glass tubes containing heparin (56 USP) and 25 μl renin inhibitor CGP 29287 (Ciba-Geigy, Basel, Switzerland) at 1 mM in water. Blood was centrifuged at 4° C. and 2000 g for 10 minutes and plasma aliquots of 0.5 ml were snap frozen in liquid nitrogen and stored at -70° C. until analyzed.
All procedures were done in an ice-water bath unless stated otherwise: Plasma was thawed and centrifuged at 4° C. and 40 μl supernatant was pipetted into a small polypropylene tube. Ten microliter monoclonal antibody TRAP (which was secreted from the Hybridoma cell line TRAP DSM ACC2003) was added (mouse ascites diluted 1:8400 in 3M tris buffer at pH 7.3). One picomole angiotensin I was added in 10 microliter albumin buffer containing--for blank determination only--EDTA at 0.2M concentration. After mixing and cold centrifugation in order to concentrate the mixture at the bottom of the tube (1 minute at 2000 g) samples were incubated in a water bath at 37° C. for 20 minutes. Incubation was stopped by returning the samples to the ice-water bath. Forty microliters of albumin buffer without/with 0.2M EDTA was added to blanks/samples in order to equalize conditions. Each tube (total 100 microliters) finally received 1 ml albumin buffer containing 1 fmol ^125 I-Ang II (2000 counts per minute) and EDTA at 0.02M concentration. After a 24 hour incubation at 4° C., antibody-bound and free Ang II were separated by adding 0.3 ml water containing 2% dextran-coated charcoal, mixing for 10 minutes, centrifugation at 4° C. (for 20 minutes at 6000 g) and decanting of the supernatant. Supernatant and pellet were counted in a ten-well scintillation counter (GammamasterR, Wallac, Turku, Finland) and generated Ang II was read from a simultaneously established standard curve.
For the standard curve, increasing amounts of unlabeled Ang II ranging from 16 to 4000 fmol in 40 μl pool plasma which contained unmeasurably low endogenous Ang I and Ang II and renin inhibitor CGP 29287 at 0.01 mM concentration; antibody in 3M tris buffer (10 μl) and 1000 fmol Ang I in EDTA-albumin buffer (10 μl) were added in order to obtain identical conditions as for the unknown samples.

[2] = tested on: angiotensin converting enzyme (ACE); test: Plasma ACE-activity, conventional assay (substrate carbobenzoxy-Phe-His-Leu) after oral enalapril; type: in vivo, human; details: for Plasma ACE-activity by the conventional method, % of pretreatment values / ACE-Activity Conventional assay: mean ± SEM; for ACE-Activity Conventional assay: healthy humans, single oral dose 20 mg enalapril
Protocol: as §1, §2
(§3) Plasma ACE-activity was also measured by an established method using as substrate synthetic carbobenzoxy-Phe-His-Leu at 1.8 mM concentration (Piquilloud Y., Reinharz A., Roth M.. Biochem. Biophys. Acta 1970; 206: 136-142). The ratio of the plasma concentrations Ang II/Ang I was used for estimation of ACE-activity "in vivo" (Nussberger J., Juillerat L., Perret F., Waeber B., Bellet M., Brunner H. R., Menard J., Am Heart J. 1989; 117: 717-722).

angiotensin I = test: Plasma angiotensin I concentration after oral enalapril; type: in vivo, human; details: healthy humans, single oral dose 20 mg enalapril, mean ± SEM
Protocol: as §1
(§4) For the measurement of Ang II (Nussberger J., Brunner D. B., Waeber B., Brunner H. R., Hypertension 1985; 7 (Suppl. I): 11-17) and immunoreactive Ang I (Nussberger J., Brunner D. B., Waeber B., Brunner H. R., Life Sci. 1988; 42:1683-1688), another 10 ml blood were collected on an inhibitor cocktail containing EDTA and renin inhibitor to prevent degradation and generation of these peptides in vitro. Samples were centrifuged at 4° C. and plasma aliquots of 2.2 ml snap frozen and stored as described above.

angiotensin II = test: Plasma angiotensin II concentration after oral enalapril; type: in vivo, human; details: healthy humans, single oral dose 20 mg enalapril, mean ± SEM
Protocol: as §1, §4

[3] = tested on: angiotensin converting enzyme (ACE); test: Ratio of plasma Ang II/Ang I as in vivo ACE-activity after oral enalapril; parameters: species or system human; details: for In vivo ACE-activity (ratio of plasma Ang II to Ang I) as percent of baseline / Ratio Ang II/Ang I: mean ± SEM; for Ratio Ang II/Ang I: plasma, healthy humans, single oral dose 20 mg enalapril
Protocol: as §1, §4, §3

[4] = 4 hours post enalapril intake (20 mg oral)
[5] = 8 hours post enalapril intake (20 mg oral)
[6] = 24 hours post enalapril intake (20 mg oral)

## CCOC(=O)[C@H](CCc1ccccc1)N[C@@H](C)C(=O)N1CCC[C@H]1C(=O)O [enalapril]
[1]; [4]
  ACE-activity measured in vitro with the trapping-assay as percent of baseline: 3.6±2.4%
[1]; [5]
  ACE-activity measured in vitro with the trapping-assay as percent of baseline: 1.3±1.3%
[1]; [6]
  ACE-activity measured in vitro with the trapping-assay as percent of baseline: 27.4±3.4%
[1]; at 24 hours
  Plasma ACE-activity measured in vitro, trapping method, returned to: 27%
[1]; at peak inhibition
  Decrease of plasma ACE-activity measured in vitro, trapping method: 99%
[1]; 0.5 h after intake
  ACE-Activity trapping-assay: 295 ± 27 fmol/mL/min
[1]; 1 h after intake
  ACE-Activity trapping-assay: 107 ± 17 fmol/mL/min
[1]; 2 h after intake
  ACE-Activity trapping-assay: 28 ± 8 fmol/mL/min
[1]; 4 h after intake
  ACE-Activity trapping-assay: 15 ± 10 fmol/mL/min
[1]; 8 h after intake
  ACE-Activity trapping-assay: 5 ± 5 fmol/mL/min
[1]; 24 h after intake
  ACE-Activity trapping-assay: 87 ± 10 fmol/mL/min
[2]; 4 hours after enalapril administration (20 mg oral)
  Plasma ACE-activity by the conventional method, % of pretreatment values: 16.5±1.7%
[2]; 8 hours after enalapril administration (20 mg oral)
  Plasma ACE-activity by the conventional method, % of pretreatment values: 20.8±1.7%
[2]; 24 hours after enalapril administration (20 mg oral)
  Plasma ACE-activity by the conventional method, % of pretreatment values: 62.6±1.6%
[2]; at 24 hours
  ACE-activity, conventional method, return towards baseline: 66%
[2]; at peak inhibition
  Peak ACE-inhibition, decrease from baseline, conventional method: 83%
[2]; 0.5 h after intake
  ACE-Activity Conventional assay: 18.1 ± 1.7 nmol/mL/min
[2]; 1 h after intake
  ACE-Activity Conventional assay: 12.1 ± 1.2 nmol/mL/min
[2]; 2 h after intake
  ACE-Activity Conventional assay: 4.5 ± 0.8 nmol/mL/min
[2]; 4 h after intake
  ACE-Activity Conventional assay: 3.0 ± 0.4 nmol/mL/min
[2]; 8 h after intake
  ACE-Activity Conventional assay: 3.7 ± 0.4 nmol/mL/min
[2]; 24 h after intake
  ACE-Activity Conventional assay: 11.2 ± 1.0 nmol/mL/min
Angiotensin I; 0.5 h after intake
  Angiotensin I: 7.3 ± 1.5 fmol/mL
Angiotensin I; 1 h after intake
  Angiotensin I: 13.5 ± 3.0 fmol/mL
Angiotensin I; 2 h after intake
  Angiotensin I: 45.7 ± 12.9 fmol/mL
Angiotensin I; 4 h after intake
  Angiotensin I: 66.8 ± 17.6 fmol/mL
Angiotensin I; 8 h after intake
  Angiotensin I: 76.6 ± 15.9 fmol/mL
Angiotensin I; 24 h after intake
  Angiotensin I: 32.1 ± 6.4 fmol/mL
Angiotensin II; 0.5 h after intake
  Angiotensin II: 4.6 ± 0.5 fmol/mL
Angiotensin II; 1 h after intake
  Angiotensin II: 2.9 ± 0.5 fmol/mL
Angiotensin II; 2 h after intake
  Angiotensin II: 1.1 ± 0.3 fmol/mL
Angiotensin II; 4 h after intake
  Angiotensin II: 1.0 ± 0.2 fmol/mL
Angiotensin II; 8 h after intake
  Angiotensin II: 1.6 ± 0.4 fmol/mL
Angiotensin II; 24 h after intake
  Angiotensin II: 3.8 ± 0.5 fmol/mL
[3]; [4]
  In vivo ACE-activity (ratio of plasma Ang II to Ang I) as percent of baseline: 2.1±0.3%
[3]; [5]
  In vivo ACE-activity (ratio of plasma Ang II to Ang I) as percent of baseline: 2.0±0.4%
[3]; [6]
  In vivo ACE-activity (ratio of plasma Ang II to Ang I) as percent of baseline: 21.9±5.0%
[3]; at 24 hours
  In vivo ACE-activity (ratio of plasma Ang II to Ang I) returned to: 22%
[3]; at peak inhibition
  Decrease of in vivo ACE-activity (ratio of plasma Ang II to Ang I): 98%
[3]; 0.5 h after intake
  Ratio Ang II/Ang I: .748 ± .101
[3]; 1 h after intake
  Ratio Ang II/Ang I: .315 ± .094
[3]; 2 h after intake
  Ratio Ang II/Ang I: .029 ± .006
[3]; 4 h after intake
  Ratio Ang II/Ang I: .015 ± .003
[3]; 8 h after intake
  Ratio Ang II/Ang I: .016 ± .003
[3]; 24 h after intake
  Ratio Ang II/Ang I: .147 ± .027
